Experimental data from paper PMC11233931, “Remodeling tumor‐associated macrophage for anti‐cancer effects by rational design of irreversible inhibition of mitogen‐activated protein kinase‐activated protein kinase 2” (MedComm, 2024).

Tests used:
Test in all cases: Eurofins kinase selectivity profile against 380 other human recombinant kinases (Table S2)
Type in all cases: biochemical
[1] = target: T1, 380 human recombinant protein kinases (Homo sapiens, UniProt P35968); conditions: KDR(h), read-out: Inhibition rate
T1 construct: purchased Eurofins (Celle Lévescault)
Method in brief: (§1)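 To gauge specificity for MK2, the compound is profiled externally at various concentrations on recombinant human kinases, 380 in total.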

[2] = target: T2, 380 human recombinant protein kinases (Homo sapiens, UniProt O14920); conditions: IKKβ(h), read-out: Inhibition rate
T2 construct: purchased Eurofins (Celle Lévescault)
T2 sequence (O14920 1-756): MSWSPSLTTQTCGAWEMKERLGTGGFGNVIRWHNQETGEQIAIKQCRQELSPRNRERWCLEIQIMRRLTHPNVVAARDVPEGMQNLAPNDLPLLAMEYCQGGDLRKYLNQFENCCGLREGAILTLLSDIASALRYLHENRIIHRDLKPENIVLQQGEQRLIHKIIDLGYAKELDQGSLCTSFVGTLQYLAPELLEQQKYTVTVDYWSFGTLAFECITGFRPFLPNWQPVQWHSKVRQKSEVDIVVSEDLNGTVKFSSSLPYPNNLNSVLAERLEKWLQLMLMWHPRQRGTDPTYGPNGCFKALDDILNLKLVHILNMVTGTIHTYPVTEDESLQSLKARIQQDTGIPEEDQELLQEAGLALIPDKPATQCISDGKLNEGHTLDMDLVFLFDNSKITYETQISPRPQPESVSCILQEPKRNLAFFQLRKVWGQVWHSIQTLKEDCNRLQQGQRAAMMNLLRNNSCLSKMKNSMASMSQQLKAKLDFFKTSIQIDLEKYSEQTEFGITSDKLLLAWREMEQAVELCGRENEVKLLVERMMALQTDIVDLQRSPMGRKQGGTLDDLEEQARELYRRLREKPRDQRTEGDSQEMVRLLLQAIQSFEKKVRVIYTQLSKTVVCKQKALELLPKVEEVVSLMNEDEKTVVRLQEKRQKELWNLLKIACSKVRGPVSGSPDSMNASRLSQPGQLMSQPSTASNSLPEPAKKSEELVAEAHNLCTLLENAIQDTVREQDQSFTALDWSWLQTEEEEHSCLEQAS
Method in brief: as §1

[3] = target: T3, 380 human recombinant protein kinases (Homo sapiens, UniProt P51451); conditions: Blk(h), read-out: Inhibition rate
T3 construct: purchased Eurofins (Celle Lévescault)
Method in brief: as §1

[4] = target: T4, 380 human recombinant protein kinases (Homo sapiens, UniProt Q92630); conditions: DYRK2(h), read-out: Inhibition rate
T4 construct: purchased Eurofins (Celle Lévescault)
T4 sequence (Q92630 1-601): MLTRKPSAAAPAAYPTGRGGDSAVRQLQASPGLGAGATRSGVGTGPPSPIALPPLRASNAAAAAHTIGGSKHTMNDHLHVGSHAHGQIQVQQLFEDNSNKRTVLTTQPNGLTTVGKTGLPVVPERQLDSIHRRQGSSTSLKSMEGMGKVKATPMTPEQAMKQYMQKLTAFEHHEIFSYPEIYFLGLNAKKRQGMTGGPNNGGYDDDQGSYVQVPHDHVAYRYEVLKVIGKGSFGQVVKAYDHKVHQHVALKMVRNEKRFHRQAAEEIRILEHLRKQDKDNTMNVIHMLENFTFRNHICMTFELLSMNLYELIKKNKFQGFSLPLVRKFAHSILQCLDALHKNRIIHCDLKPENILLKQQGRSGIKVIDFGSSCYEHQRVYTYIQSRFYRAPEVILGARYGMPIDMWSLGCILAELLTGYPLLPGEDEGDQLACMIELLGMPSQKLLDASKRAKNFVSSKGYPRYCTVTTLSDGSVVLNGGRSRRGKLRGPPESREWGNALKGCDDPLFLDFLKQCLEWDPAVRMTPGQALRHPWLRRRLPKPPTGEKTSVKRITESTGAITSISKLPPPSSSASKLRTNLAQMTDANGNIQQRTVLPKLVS
Method in brief: as §1

[5] = target: T5, 380 human recombinant protein kinases (Homo sapiens, UniProt P23458); conditions: JAK1(h), read-out: Inhibition rate
T5 construct: purchased Eurofins (Celle Lévescault)
Method in brief: as §1

[6] = target: T6, 380 human recombinant protein kinases (Homo sapiens, UniProt Q04912); conditions: Ron(h), read-out: Inhibition rate
T6 construct: purchased Eurofins (Celle Lévescault)
Method in brief: as §1

[7] = target: T7, 380 human recombinant protein kinases (Homo sapiens, UniProt P14616); conditions: IRR(h), read-out: Inhibition rate
T7 construct: purchased Eurofins (Celle Lévescault)
Method in brief: as §1

[8] = target: T8, 380 human recombinant protein kinases (Homo sapiens, UniProt P78527); conditions: DNA-PK(h), read-out: Inhibition rate (%)
T8 construct: purchased Eurofins (Celle Lévescault)
Method in brief: as §1

T7 sequence (P14616 27-1297): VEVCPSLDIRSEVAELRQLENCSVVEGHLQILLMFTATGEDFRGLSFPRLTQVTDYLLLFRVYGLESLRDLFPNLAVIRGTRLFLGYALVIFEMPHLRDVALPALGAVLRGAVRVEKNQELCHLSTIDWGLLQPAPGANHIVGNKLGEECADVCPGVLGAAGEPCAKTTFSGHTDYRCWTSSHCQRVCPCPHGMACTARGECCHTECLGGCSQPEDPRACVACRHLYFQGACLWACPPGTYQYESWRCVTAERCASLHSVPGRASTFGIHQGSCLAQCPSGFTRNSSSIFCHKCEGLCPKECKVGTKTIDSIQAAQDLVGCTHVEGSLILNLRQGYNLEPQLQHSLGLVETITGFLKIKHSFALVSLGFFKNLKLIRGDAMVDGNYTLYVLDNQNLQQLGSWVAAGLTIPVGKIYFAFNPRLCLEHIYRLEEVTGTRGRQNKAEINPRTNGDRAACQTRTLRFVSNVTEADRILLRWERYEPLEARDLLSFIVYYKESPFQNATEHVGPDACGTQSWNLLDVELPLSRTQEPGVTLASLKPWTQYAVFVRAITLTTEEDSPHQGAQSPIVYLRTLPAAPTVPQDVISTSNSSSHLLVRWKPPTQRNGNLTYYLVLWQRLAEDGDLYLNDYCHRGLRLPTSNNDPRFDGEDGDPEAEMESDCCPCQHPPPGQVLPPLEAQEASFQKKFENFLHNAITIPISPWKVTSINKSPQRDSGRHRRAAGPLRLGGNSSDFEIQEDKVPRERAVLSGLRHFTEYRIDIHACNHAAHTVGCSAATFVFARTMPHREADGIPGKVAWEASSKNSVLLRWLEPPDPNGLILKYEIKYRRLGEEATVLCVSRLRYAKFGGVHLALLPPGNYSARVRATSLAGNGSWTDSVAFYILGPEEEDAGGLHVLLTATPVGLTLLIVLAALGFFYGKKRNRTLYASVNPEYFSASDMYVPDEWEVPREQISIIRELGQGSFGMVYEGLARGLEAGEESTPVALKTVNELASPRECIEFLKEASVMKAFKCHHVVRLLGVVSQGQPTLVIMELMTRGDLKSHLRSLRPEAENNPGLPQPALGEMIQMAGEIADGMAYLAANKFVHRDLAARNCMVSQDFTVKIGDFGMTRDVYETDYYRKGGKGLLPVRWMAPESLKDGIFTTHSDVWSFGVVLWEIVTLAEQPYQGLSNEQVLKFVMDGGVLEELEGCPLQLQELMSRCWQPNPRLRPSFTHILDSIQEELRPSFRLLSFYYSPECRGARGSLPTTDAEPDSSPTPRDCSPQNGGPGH
T6 sequence (Q04912 25-1400): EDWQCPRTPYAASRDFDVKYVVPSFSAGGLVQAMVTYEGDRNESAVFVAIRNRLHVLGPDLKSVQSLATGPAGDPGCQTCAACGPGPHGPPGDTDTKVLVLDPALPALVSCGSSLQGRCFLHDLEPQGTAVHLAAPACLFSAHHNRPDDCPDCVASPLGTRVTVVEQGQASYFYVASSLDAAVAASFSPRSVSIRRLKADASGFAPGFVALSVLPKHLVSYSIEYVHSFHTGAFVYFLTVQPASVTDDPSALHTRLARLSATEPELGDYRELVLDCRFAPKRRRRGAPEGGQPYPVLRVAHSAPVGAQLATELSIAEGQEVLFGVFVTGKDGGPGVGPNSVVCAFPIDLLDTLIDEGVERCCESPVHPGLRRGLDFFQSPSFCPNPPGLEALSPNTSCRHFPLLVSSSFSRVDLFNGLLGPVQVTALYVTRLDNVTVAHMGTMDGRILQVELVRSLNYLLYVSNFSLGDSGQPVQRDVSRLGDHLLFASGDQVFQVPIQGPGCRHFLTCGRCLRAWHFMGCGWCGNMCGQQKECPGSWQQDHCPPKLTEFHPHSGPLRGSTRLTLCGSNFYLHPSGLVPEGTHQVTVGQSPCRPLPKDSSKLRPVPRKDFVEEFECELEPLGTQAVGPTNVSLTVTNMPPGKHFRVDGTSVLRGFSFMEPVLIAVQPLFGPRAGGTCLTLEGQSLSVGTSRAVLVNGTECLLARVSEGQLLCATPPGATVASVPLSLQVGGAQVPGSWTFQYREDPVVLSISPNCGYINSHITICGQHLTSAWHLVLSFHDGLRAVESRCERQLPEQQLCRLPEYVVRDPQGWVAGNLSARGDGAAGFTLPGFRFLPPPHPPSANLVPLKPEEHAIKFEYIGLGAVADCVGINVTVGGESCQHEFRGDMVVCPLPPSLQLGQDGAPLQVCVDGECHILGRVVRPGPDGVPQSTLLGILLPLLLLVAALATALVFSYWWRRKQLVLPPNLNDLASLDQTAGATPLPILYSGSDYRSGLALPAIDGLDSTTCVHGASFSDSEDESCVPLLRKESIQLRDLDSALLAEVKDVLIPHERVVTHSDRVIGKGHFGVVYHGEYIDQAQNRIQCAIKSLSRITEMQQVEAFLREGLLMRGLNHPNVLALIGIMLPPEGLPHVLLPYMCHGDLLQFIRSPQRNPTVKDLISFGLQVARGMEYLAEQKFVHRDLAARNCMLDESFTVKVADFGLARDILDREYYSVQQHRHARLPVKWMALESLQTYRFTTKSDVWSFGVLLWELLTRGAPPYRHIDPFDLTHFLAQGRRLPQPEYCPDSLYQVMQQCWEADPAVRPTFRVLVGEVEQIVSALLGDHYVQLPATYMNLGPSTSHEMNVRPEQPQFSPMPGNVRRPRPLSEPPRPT
T1 sequence (P35968 20-1356): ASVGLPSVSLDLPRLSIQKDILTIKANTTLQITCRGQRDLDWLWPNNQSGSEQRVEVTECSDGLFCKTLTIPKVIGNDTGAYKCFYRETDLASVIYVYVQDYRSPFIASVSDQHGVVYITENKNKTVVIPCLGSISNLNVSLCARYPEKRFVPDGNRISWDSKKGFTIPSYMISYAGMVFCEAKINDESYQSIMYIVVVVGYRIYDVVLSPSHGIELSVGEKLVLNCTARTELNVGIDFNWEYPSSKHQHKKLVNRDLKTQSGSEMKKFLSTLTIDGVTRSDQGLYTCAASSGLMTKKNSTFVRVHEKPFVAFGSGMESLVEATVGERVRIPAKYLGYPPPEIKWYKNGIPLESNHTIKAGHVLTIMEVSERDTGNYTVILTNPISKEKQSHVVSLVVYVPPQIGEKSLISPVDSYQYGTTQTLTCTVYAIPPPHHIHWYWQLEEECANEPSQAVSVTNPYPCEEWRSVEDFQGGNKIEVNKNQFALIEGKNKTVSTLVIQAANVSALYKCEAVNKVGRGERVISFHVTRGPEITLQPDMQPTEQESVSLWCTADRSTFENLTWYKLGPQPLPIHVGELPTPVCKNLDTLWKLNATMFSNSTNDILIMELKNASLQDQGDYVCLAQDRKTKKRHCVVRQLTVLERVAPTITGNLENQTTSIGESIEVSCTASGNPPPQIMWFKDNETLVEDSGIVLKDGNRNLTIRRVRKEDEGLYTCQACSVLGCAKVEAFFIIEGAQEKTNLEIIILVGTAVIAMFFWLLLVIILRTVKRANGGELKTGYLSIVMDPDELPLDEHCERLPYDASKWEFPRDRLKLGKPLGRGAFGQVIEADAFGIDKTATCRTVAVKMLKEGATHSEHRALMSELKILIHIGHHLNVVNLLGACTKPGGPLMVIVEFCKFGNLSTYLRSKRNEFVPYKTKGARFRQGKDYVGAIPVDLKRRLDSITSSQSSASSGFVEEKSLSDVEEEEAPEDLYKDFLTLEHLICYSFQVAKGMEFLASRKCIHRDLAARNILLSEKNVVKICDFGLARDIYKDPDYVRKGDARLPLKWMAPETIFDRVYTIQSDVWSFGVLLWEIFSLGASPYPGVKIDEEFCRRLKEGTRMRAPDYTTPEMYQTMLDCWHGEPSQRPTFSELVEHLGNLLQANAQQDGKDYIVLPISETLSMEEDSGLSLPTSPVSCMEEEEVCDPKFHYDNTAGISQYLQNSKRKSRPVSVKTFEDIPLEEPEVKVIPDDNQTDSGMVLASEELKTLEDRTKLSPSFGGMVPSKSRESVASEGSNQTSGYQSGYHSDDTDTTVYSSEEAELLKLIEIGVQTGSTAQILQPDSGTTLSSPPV
T5 sequence (P23458 whole entry): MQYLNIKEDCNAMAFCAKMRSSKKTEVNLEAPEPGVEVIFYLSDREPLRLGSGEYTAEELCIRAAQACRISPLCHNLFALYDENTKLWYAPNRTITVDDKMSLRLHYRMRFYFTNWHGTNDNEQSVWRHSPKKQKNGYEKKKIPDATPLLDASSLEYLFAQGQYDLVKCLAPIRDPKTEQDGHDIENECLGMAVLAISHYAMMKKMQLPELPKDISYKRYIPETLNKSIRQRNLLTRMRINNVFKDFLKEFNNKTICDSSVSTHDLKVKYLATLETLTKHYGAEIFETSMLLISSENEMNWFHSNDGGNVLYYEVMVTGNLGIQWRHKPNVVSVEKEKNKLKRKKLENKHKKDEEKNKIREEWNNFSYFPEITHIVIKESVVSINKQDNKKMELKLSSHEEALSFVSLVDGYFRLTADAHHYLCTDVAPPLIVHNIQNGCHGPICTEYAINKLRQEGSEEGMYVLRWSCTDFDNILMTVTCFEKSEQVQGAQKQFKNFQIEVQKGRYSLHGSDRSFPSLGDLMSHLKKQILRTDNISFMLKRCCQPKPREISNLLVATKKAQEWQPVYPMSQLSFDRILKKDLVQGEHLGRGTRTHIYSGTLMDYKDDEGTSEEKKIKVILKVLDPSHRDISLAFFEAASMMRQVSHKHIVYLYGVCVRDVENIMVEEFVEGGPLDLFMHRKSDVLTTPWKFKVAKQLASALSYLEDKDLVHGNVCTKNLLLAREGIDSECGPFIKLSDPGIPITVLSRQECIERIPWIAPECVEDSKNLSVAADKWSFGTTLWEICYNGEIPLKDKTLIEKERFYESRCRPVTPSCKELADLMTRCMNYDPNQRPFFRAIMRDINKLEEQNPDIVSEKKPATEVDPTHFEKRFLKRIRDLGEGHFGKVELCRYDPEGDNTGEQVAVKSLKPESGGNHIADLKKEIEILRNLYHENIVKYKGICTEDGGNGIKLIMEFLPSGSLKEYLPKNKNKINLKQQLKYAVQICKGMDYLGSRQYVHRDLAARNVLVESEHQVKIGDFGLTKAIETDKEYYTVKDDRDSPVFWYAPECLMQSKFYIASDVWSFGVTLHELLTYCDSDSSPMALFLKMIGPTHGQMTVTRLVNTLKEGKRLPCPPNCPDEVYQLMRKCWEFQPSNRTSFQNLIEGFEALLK

C=CC(=O)Nc1cc(-c2cc(-c3cc4c([nH]3)CCNC4=O)ccn2)ccc1OC(F)(F)F [compound 11]
inhibition at 0.01 µM ([1]; 10 nM): 4%
inhibition at 0.1 µM ([1]; 100 nM): 5%
inhibition at 1 µM ([1]; 1000 nM): 31%
inhibition at 0.01 µM ([2]; 10 nM): -15%
inhibition at 0.1 µM ([2]; 100 nM): -12%
inhibition at 1 µM ([2]; 1000 nM): -12%
inhibition at 0.01 µM ([3]; 10 nM): 13%
inhibition at 0.1 µM ([3]; 100 nM): 4%
inhibition at 1 µM ([3]; 1000 nM): 12%
inhibition at 0.01 µM ([4]; 10 nM): 16%
inhibition at 0.1 µM ([4]; 100 nM): 67%
inhibition at 1 µM ([4]; 1000 nM): 98%
inhibition at 0.01 µM ([5]; 10 nM): -6%
inhibition at 0.1 µM ([5]; 100 nM): -8%
inhibition at 1 µM ([5]; 1000 nM): 1%
inhibition at 0.01 µM ([6]; 10 nM): -4%
inhibition at 0.1 µM ([6]; 100 nM): 26%
inhibition at 1 µM ([6]; 1000 nM): 77%
inhibition at 0.01 µM ([7]; 10 nM): 10%
inhibition at 0.1 µM ([7]; 100 nM): 33%
inhibition at 1 µM ([7]; 1000 nM): 61%
inhibition at 0.01 µM ([8]; 10 nM): -1%
inhibition at 0.1 µM ([8]; 100 nM): 2%
inhibition at 1 µM ([8]; 1000 nM): 3%
